Earlier results as cited in patent US20020142346A1, “Binding compounds and methods for identifying binding compounds” (priority 2000, published 2002).

Legend:
Src = settings: binding domain Src; preferred peptide
SH2 (src) = target: T1, SH2 (src) (Homo sapiens, UniProt P12931); settings: binding domain SH2 (src); preferred peptide
T1 construct: SH2 (src)

EPQpYEEIPIYLK
Kd (Src): 0.08 µM

PYEEIY
Kd (SH2 (src)): 0.1 µM
